Patent US20220249525A1, “Fatty Acid Compounds for Prevention and Treatment of Neurodegenerative Disorders” (T OMEGA AS, priority 2019, published 2022)
Structures can show the parent of a compound that is named as a salt.

Legend:
[1] = 4 week high-fat diet study, body weight, adipose tissue, plasma glucose and cholesterol; format: in vivo, C57BL/6 mice; conditions: mice, N-TTA 750 mg/kg or triple-N-TTA 350 mg/kg body weight, 4 weeks
Method: This animal study was conducted according to the Guidelines for the Care and Use of Experimental Animals, and the protocol was approved by the Norwegian Food Authorities. 7 to 8-weeks old male C57BL/6 mice, were obtained from Janvier Labs. After one week of acclimatization, they were divided into 3 groups of 7 animals. One group was fed a control high-fat (25 w/v) diet while the two remaining groups were fed a high-fat diet supplemented with either N-TTA (750 mg/kg body weight) or triple-N-TTA (350 mg/kg body weight). After 4 weeks of feeding, the mice were anaesthetized with Isofluorane (Forane, Abbot Laboratories Ltd, Illinois, USA) inhalation under fasting conditions, and blood and liver samples were collected. […]
Glucose and lipids in plasma was measured on the Hitachi 917 system (Roche Diagnostics, GmbH, Mannheim, Germany) using kits from Roche Diagnostics or DiaSys.

SH-SY5Y cells = experiment: WST-1 cell viability assay in SH-SY5Y cells; format: cell-based; conditions: 4 days
Method: (§1) The fatty acids (FAs) TTA, tr-TTA, N-TTA, tr-N-TTA and (PA) were complexed with FBS following the same procedure, differing only in final stock concentration, due to variation in solubility. Approximately 0.07 g of FA was weighed in a 10 ml sterile serum tube (BD Vacutainer®, catalog no. 368430) and dissolved in sterile filtrated 0.1 M sodium hydroxide (NaOH) of a volume giving 25 mM FA, controls without FA were made, containing only NaOH and FBS. A syringe (Sterican®, catalog no. 4657577) was pierced through the rubber cap of the serum tube, and the tube was placed in an 80° C. water bath until the FAs were dissolved. Each FA-solution was then diluted in inactivated FBS to stock concentration 1 mM (N-TTA, tr-N-TTA), and 2 mM by adding the FA to a volume of 100% FBS after heating the FBS to 45° C. in a water bath. The transfer of FA to FBS had to be executed controlled and swiftly to avoid the formation of precipitates. If any precipitates in the solution were visible, the FA and a new volume of FBS were reheated, and the procedure performed again. Following successful complexation, the stock solutions were stored at −20° C. in 1 ml aliquots (CryoPure tube, Sarstedt AG & Co, Nümbrecht, Germany).
(§2) The WST-1 cell proliferation assay was performed using the kit from Roche (table 4.2.) and its accompanying procedure (version 16, February 2011) (134). The number of cells seeded to each well in the 96-well plates (Corning Inc., catalog no. 353072) varied depending on the treatment time and cell type (table 3.).
(§3) Cell suspension and medium were then transferred to each well in a volume of 100 μl in total. Subsequently, the plates were incubated for 24 hours to make the cells settle. The next day, 100 μl with FA complexed with FBS or diluted in DMSO was added to row A or B in the 96-well plate to give a defined concentration. The solution was then mixed with a pipette, and 100 μl of the medium with FA was transferred to the next well in the same column, mixed by pipetting up and down at least five times before 100 μl was transferred again to the next well in the column. This procedure was repeated until the second last, or last well in each column was reached, making a series of two-fold dilution of the FAs in the cell medium. Two parallels were performed for every treatment per run. After the addition of FAs, the plates were incubated for 24-96 hours depending on the length of the treatment.
Following the FA-treatment, the cells were studied under a microscope to ensure that visual observations matched the measured absorbance and cell activity in the assay. Subsequently, 10 μl WST-1 reagent was added to each well, and the plates were incubated for 3 hours. Due to high activity in the HuH-7 cell line, the WST-1 reagent was diluted 1:1 with PBS. Before the measurement of absorbance, the plates were placed on a shaker for 1 minute ensuring thoroughly mixing of the wells. The plates were then put straight into the spectrophotometer (SpectraMax Plus 384 Microplate Reader, Molecular Devices Corporation, San Jose, Calif., USA) to perform the measurements. […] The absorbance of the samples was measured at 450 nm, and the reference wavelength was set to 650 nm. For each well, the measured absorption at 650 nm was subtracted from the absorption at 450 nm. The measured absorbance for the treated cells was then compared to the controls (blank) containing only cells and growth medium.

HuH-7 cells = experiment: WST-1 cell viability assay in HuH-7 cells; format: cell-based; conditions: 2 days
Method: as §1, §2, §3
Following the FA-treatment, the cells were studied under a microscope to ensure that visual observations matched the measured absorbance and cell activity in the assay. Subsequently, 10 μl WST-1 reagent was added to each well, and the plates were incubated for 3 hours. Due to high activity in the HuH-7 cell line, the WST-1 reagent was diluted 1:1 with PBS. Before the measurement of absorbance, the plates were placed on a shaker for 1 minute ensuring thoroughly mixing of the wells. The plates were then put straight into the spectrophotometer (SpectraMax Plus 384 Microplate Reader, Molecular Devices Corporation, San Jose, Calif., USA) to perform the measurements. The accompanying software was used (SoftMax Pro, Molecular Devices Corporation, San Jose, Calif., USA) to obtain the results. The absorbance of the samples was measured at 450 nm, and the reference wavelength was set to 650 nm. For each well, the measured absorption at 650 nm was subtracted from the absorption at 450 nm. The measured absorbance for the treated cells was then compared to the controls (blank) containing only cells and growth medium.

[2] = tested on: MOLM-13 human acute leukemia cells; experiment: WST-1 viability of MOLM-13 cells; format: cell-based; conditions: for Abs450 nm (WST-1 viability): complexed to BSA
Method: MOLM-13 suspension cells were diluted and added to 96-well plates (15.000 cells/well).
The modified fatty acids TTA, tr-TTA, TDG (TGH) and tr-TDG (tr-TGH) were complexed to bovine serum albumin (BSA), and 10-fold dilutions of the fatty acids or BSA control were added to the wells in duplicate. Two plates were run in parallel, and WST-1 was added to the cells after 48 (plate 1) and 72 hours (plate 2). Absorbance at 450 nm measured to assess viability of the cells.

CC#CCCCCCCCCCCCNCC(=O)O [tr-N-TTA, Tetradec-12-yn-1-ylglycine hydrochloride]
LDL cholesterol (plasma) [1]: reduced | body weight gain vs high-fat control diet [1]: significantly lower | cholesterol esters (plasma) [1]: reduced | epididymal white adipose tissue depot [1]: reduced in size | free cholesterol (plasma) [1]: reduced | perirenal white adipose tissue depot [1]: reduced in size | total cholesterol (plasma) [1]: reduced | blood glucose vs high-fat control diet ([1]; fasting): significantly lower | WST-1 activity compared to untreated cells (SH-SY5Y cells; 500 μM): 84% | WST-1 activity compared to untreated cells (SH-SY5Y cells; all concentrations except 500 μM): ~100% | WST-1 activity compared to untreated cells (HuH-7 cells; 16 μM, complexed with FBS): 109% | WST-1 activity compared to no treatment (HuH-7 cells; 500 μM): ~90% | WST-1 activity compared to untreated cells (HuH-7 cells; all concentrations): around 100% | Abs450 nm (WST-1 viability) ([2]; 48 hours, 0.0625 mM): 0.4964 | Abs450 nm (WST-1 viability) ([2]; 48 hours, 0.125 mM): 0.1452 | Abs450 nm (WST-1 viability) ([2]; 48 hours, 0.25 mM): 0.1679 | Abs450 nm (WST-1 viability) ([2]; 48 hours, 0.5 mM): 0.2177 | Abs450 nm (WST-1 viability) ([2]; 48 hours, 1 mM): 0.2833 | Abs450 nm (WST-1 viability) ([2]; 48 hours, 2 mM): 0.5009 | Abs450 nm (WST-1 viability) ([2]; 72 hours, 0.03125 mM): 0.3769 | Abs450 nm (WST-1 viability) ([2]; 72 hours, 0.0625 mM): 0.4452 | Abs450 nm (WST-1 viability) ([2]; 72 hours, 0.125 mM): 0.13 | Abs450 nm (WST-1 viability) ([2]; 72 hours, 0.25 mM): 0.1384 | Abs450 nm (WST-1 viability) ([2]; 72 hours, 0.5 mM): 0.1964 | Abs450 nm (WST-1 viability) ([2]; 72 hours, 1 mM): 0.366 | Abs450 nm (WST-1 viability) ([2]; 72 hours, 2 mM): 0.426 | toxicity to leukemic cells ([2]; MOLM-13, compared with TTA and tr-TTA): toxic to leukemic cells at a lower concentration than TTA and tr-TTA
